Assay type in all cases: cell-based
Assay [1] concerns Staphylococcus aureus 133. Nature of the assay: MIC, serial agar dilution. As to the method: (§1) The minimum inhibitory concentrations (MICs) were determined in serial dilution tests using Iso-Sensitest Agar (Oxoid). For each test substance, a series of agar plates was prepared which contained concentrations of the active compound which decreased as a result of dilution to twice the volume each time. The agar plates were inoculated using a Multipoint Inoculator (Denley). For inoculation, overnight cultures of the pathogens were used which had previously been diluted to such a concentration that each inoculation point contained approximately 10^4 colony-forming particles. The inoculated agar plates were incubated at 37° C., and the microbial growth was determined after approximately 20 hours. The MIC value (μg/ml) indicates the lowest concentration of active compound at which no growth was discernible with the naked eye.
A general note: In agar dilution the substance is mixed into plates at graded concentrations.

Assay [2] concerns Staphylococcus aureus ICB 25701. Nature of the assay: MIC, serial agar dilution. As to the method:
as §1

In assay [3] the test system is Enterococcus faecalis 27101. As to the kind of experiment: MIC, serial agar dilution. As to the method:
as §1

In assay [4] the test system is Enterobater cloaceae 2427. As to the kind of experiment: MIC, serial agar dilution. As to the method: as §1
Assay [5] has as its system Enterococcus faecalis 9790. As to the kind of experiment: MIC, serial agar dilution. As to the method:
as §1

In another assay the test system is Enterobater aer.ICB 5240. As to the kind of experiment: MIC, serial agar dilution. Here is the method: as §1
For another assay, the system named is E. coli Neumann. Nature of the assay: MIC, serial agar dilution. The note with it: Escherichia coli. Here is the method: as §1
Assay [6] relates to Staphylococcus aureus ATTC 29213. As to the kind of experiment: MIC, serial agar dilution. Here is the method: as §1
Another assay concerns E. coli G293 Lh. As to the kind of experiment: MIC, veterinary microorganisms. The note with it: Escherichia coli, G293LH, 20 h. Here is the method:
as §1
(§2) Table 3 lists MIC values of compounds according to the invention against microorganisms which aye specific to veterinary medicine. The comparison compound shown in this case is enrofloxacin (ENRO), which is a therapeutic used in veterinary medicine.

In the next assay the test system is Staph. Z 318 Lh. As to the kind of experiment: MIC, veterinary microorganisms. The note with it: 20 h. As to the method:
as §1, §2

The test system of the next assay is E. coli 21 Bui. Nature of the assay: MIC, veterinary microorganisms. Conditions: Escherichia coli, 20 h. As to the method:
as §1, §2

The test system of a further assay is Staph. Ky 469 We. As to the kind of experiment: MIC, veterinary microorganisms. The note with it: 20 h. Here is the method:
as §1, §2

The subject of a further assay is Staph. Z433-4 LH. As to the kind of experiment: MIC, veterinary microorganisms. The note with it: 20 h. Here is the method: as §1, §2
[7] abbreviates: Staphylococcus aureus 133, Iso-Sensitest Agar, 37° C., approximately 20 hours, read-out: MIC.
Setting [8] is: Staphylococcus aureus, ICB25701, 20 h.
Where [9] appears, read: Enterococcus faecalis 27101, Iso-Sensitest Agar, 37° C., approximately 20 hours, read-out: MIC.
[10] abbreviates: Enterobater cloaceae 2427, Iso-Sensitest Agar, 37° C., approximately 20 hours, read-out: MIC.
The mark [11] stands for this setting: Enterococcus faecalis 9790, Iso-Sensitest Agar, 37° C., approximately 20 hours, read-out: MIC.
Setting [12] is: Enterobater aer.ICB 5240, Iso-Sensitest Agar, 37° C., approximately 20 hours, read-out: MIC.
Where [13] appears, read: E. coli Neumann, Iso-Sensitest Agar, 37° C., approximately 20 hours, read-out: MIC.
Setting [14] is: ATTC29213, Staphylococcus aureus ATTC 29213, Iso-Sensitest Agar, 37° C., approximately 20 hours, read-out: MIC.
Setting [15] is: ICB25701, Staphylococcus aureus ICB 25701, Iso-Sensitest Agar, 37° C., approximately 20 hours, read-out: MIC.
The mark [16] stands for this setting: Staphylococcus aureus, ATTC29213, 20 h.

The values below come from patent publication US5659038A, “5-vinyl-and 5-ethinyl-quinolone- and -naphthyridone-carboxylic acids” (Bayer Aktiengesellschaft, priority 1994, dated 1997).

≈ marks a conversion by molar mass, not a printed value. Structures can show the parent of a compound that is named as a salt. Where two headings read alike, the source gives them in different places.

As to `C=Cc1c(F)c(N2C[C@@H]3CCCN[C@@H]3C2)c(F)c2c1c(=O)c(C(=O)O)cn2C1CC1` (relative stereo) [Compound 2, 1-cyclopropyl-7-(cis-2,8-diazabicyclo[4.3.0]non-8-yl)-6,8-difluoro-1,4-dihydro-4-oxo-5-vinyl-3-quinolinecarboxylic acid], the MIC (usually the least concentration at which growth counts as inhibited) was found to be 0.06 µg/mL (≈ 0.144 µM) in assay [1] (setting [7]); 1 µg/mL (≈ 2.41 µM) in assay [2] (setting [8]); 0.125 µg/mL (≈ 0.301 µM) in assay [3] (setting [9]); 0.125 µg/mL (≈ 0.301 µM) in [4] (setting [10]); 0.125 µg/mL (≈ 0.301 µM) in assay [5] (setting [11]); 16 µg/mL (≈ 38.5 µM) in the assay on Enterobater aer.ICB 5240 (setting [12]). Moreover, the MIC (in the assay on E. coli Neumann (setting [13]); in assay [6] (setting [14])) was 0.06 µg/mL (≈ 0.144 µM) in each case.
Regarding `C=Cc1c(F)c(N2CCN(C)CC2)c(F)c2c1c(=O)c(C(=O)O)cn2C1CC1` [Compound 1, 1-cyclopropyl-6,8-difluoro-1,4-dihydro-4-oxo-7-(4-methyl-1-piperazinyl)-4-oxo-5-vinyl-3-quinolinecarboxylic acid], the MIC in [1] (Staphylococcus aureus, 133, 20 h) is 0.25 µg/mL (≈ 0.642 µM); in assay [2] (setting [15]) it was 64 µg/mL (≈ 164 µM); in assay [3] (Enterococcus faecalis, 27101, 20 h), 1 µg/mL (≈ 2.57 µM); in assay [4] (20 h), 0.25 µg/mL (≈ 0.642 µM); in assay [5] (Enterococcus faecalis, 9790, 20 h) it was 1 µg/mL (≈ 2.57 µM); with Enterobater aer.ICB 5240 (20 h) it was 32 µg/mL (≈ 82.2 µM). Further, the MIC in the assay on E. coli Neumann (setting [13]) was found to be 0.06 µg/mL (≈ 0.154 µM); in assay [6] (setting [16]) it was 0.25 µg/mL (≈ 0.642 µM).
For `C=Cc1c(F)c(N2C[C@@H]3CCCN[C@@H]3C2)c(F)c2c1c(=O)c(C(=O)O)cn2C1CC1` [Compound 3, 1-cyclopropyl-7-(S,S-2,8-diazabicyclo[4.3.0]non-8-yl)-6,8-difluoro-1,4-dihydro-4-oxo-5-vinyl-3-quinolinecarboxylic acid], the MIC in [1] (setting [7]) turned out to be 0.03 µg/mL (≈ 0.0722 µM); in assay [2] (setting [8]), 0.5 µg/mL (≈ 1.2 µM); in [3] (setting [9]), 0.125 µg/mL (≈ 0.301 µM); in assay [4] (setting [10]), 0.06 µg/mL (≈ 0.144 µM); in assay [5] (setting [11]), 0.125 µg/mL (≈ 0.301 µM); with Enterobater aer.ICB 5240 (20 h) it was 8 µg/mL (≈ 19.3 µM). Further, the MIC with E. coli Neumann (setting [13]) was no more than 0.015 µg/mL; in [6] (setting [14]), 0.03 µg/mL (≈ 0.0722 µM).
For the compound `C=Cc1c(F)c(N2CCC(N)C2)c(F)c2c1c(=O)c(C(=O)O)cn2C1CC1.Cl` (stereo not shown) [Compound 5, 7-(3-aminopyrrolidin-1-yl)-1-cyclopropyl-6,8-difluoro-1,4-dihydro-4-oxo-5-vinyl-3-quinolinecarboxylic acid hydrochloride], the MIC came to 32 µg/mL in the assay on E. coli G293 Lh; 2 µg/mL in the assay on Staph. Z 318 Lh; 16 µg/mL against E. coli 21 Bui; 0.03 µg/mL against Staph. Ky 469 We; 0.03 µg/mL in the assay with Staph. Z433-4 LH; 0.03 µg/mL in [1] (setting [7]). The MIC in [2] (setting [15]) was 2 µg/mL; in assay [3] (setting [9]) it was 0.06 µg/mL; in assay [4] (setting [10]) it was no more than 0.015 µg/mL; in assay [5] (setting [11]) it was 0.125 µg/mL; in the assay on Enterobater aer.ICB 5240 (setting [12]) it was 4 µg/mL; in the assay with E. coli Neumann (setting [13]), no more than 0.015 µg/mL. Further, in assay [6] (setting [14]), the MIC is no more than 0.015 µg/mL.
`C=Cc1c(F)c(N2CC3CC=CC(N)C3C2)c(F)c2c1c(=O)c(C(=O)O)cn2C1CC1` (stereo not shown) [Compound 6, 7-(4-amino-1,3,3a,4,7,7a-hexahydro-isoindol-2-yl)-1-cyclopropyl-6,8-difluoro-1,4-dihydro-4-oxo-5-vinyl-3-quinolinecarboxylic acid]: the MIC was 8 µg/mL (≈ 18.7 µM) in the assay on E. coli G293 Lh; 0.06 µg/mL (≈ 0.14 µM) against Staph. Z 318 Lh; 4 µg/mL (≈ 9.36 µM) against E. coli 21 Bui; 0.015 µg/mL (≈ 0.0351 µM) against Staph. Ky 469 We; 0.015 µg/mL (≈ 0.0351 µM) with Staph. Z433-4 LH; no more than 0.015 µg/mL in assay [1] (setting [7]). Also, the MIC came to 0.03 µg/mL (≈ 0.0702 µM) in [2] (setting [15]); 0.03 µg/mL (≈ 0.0702 µM) in assay [3] (setting [9]); 0.125 µg/mL (≈ 0.292 µM) in assay [4] (setting [10]); 0.03 µg/mL (≈ 0.0702 µM) in assay [5] (setting [11]); 4 µg/mL (≈ 9.36 µM) with Enterobater aer.ICB 5240 (setting [12]); 0.015 µg/mL (≈ 0.0351 µM) in the assay with E. coli Neumann (setting [13]). Further, the MIC in assay [6] (setting [14]) is no more than 0.015 µg/mL.
Turning to `C=Cc1c(F)c(N2CC3CC=CC(NC)C3C2)c(F)c2c1c(=O)c(C(=O)O)cn2C1CC1` (stereo not shown) [Compound 7, 7-(4-methylamino-1,3,3a,4,7,7a-hexahydro-isoindol-2-yl)-1-cyclopropyl-6,8-difluoro-1,4-dihydro-4-oxo-5-vinyl-3-quinolinecarboxylic acid], the minimal inhibitory concentration (MIC) was no more than 0.015 µg/mL in [1] (setting [7]); 0.03 µg/mL (≈ 0.068 µM) in [2] (setting [15]); 0.03 µg/mL (≈ 0.068 µM) in assay [3] (setting [9]); 0.125 µg/mL (≈ 0.283 µM) in assay [4] (setting [10]); 0.03 µg/mL (≈ 0.068 µM) in assay [5] (setting [11]); 8 µg/mL (≈ 18.1 µM) with Enterobater aer.ICB 5240 (20 h). In addition, the values for the MIC (in the assay on E. coli Neumann (setting [13]); in [6] (setting [14])) were 0.03 µg/mL (≈ 0.068 µM) and no more than 0.015 µg/mL, respectively.
Take `C=Cc1c(F)c(N2CC3CCOC3(CN)C2)c(F)c2c1c(=O)c(C(=O)O)cn2C1CC1` (stereo not shown) [Compound 11, 7-(6a-aminomethylhexahydro-furo[2,3-c]pyrrol-5-yl)-1-cyclopropyl-6,8-difluoro-1,4-dihydro-4-oxo-5-vinyl-3-quinolinecarboxyllc acid hydrochloride]: the minimal inhibitory concentration (MIC) in [1] (setting [7]) turned out to be 0.015 µg/mL; in assay [2] (setting [8]) it was 0.5 µg/mL; in [3] (setting [9]), 0.125 µg/mL; in assay [4] (setting [10]), 0.125 µg/mL; in assay [5] (setting [11]), 0.125 µg/mL; in the assay with Enterobater aer.ICB 5240 (20 h) it was 32 µg/mL. In addition, the MIC came out at 0.03 µg/mL in the assay on E. coli Neumann (setting [13]) and 0.015 µg/mL in [6] (setting [14]).
`CCc1c(F)c(N2CCN(C)CC2)c(F)c2c1c(=O)c(C(=O)O)cn2C1CC1` [Compound K, 1-cyclopropyl-5-ethyl-6,8-difluoro-1,4-dihydro-7-(4-methyl-1-piperazinyl)-4-oxo-3-quinolinecarboxylic acid, reference compound]: the MIC in assay [1] (setting [7]) was 16 µg/mL (≈ 40.9 µM); in assay [2] (setting [15]), 64 µg/mL (≈ 164 µM); in [3] (setting [9]) it was 64 µg/mL (≈ 164 µM); in assay [4] (20 h), 1 µg/mL (≈ 2.55 µM); in [5] (setting [11]), 64 µg/mL (≈ 164 µM); in the assay with Enterobater aer.ICB 5240 (setting [12]), no more than 128 µg/mL. Further, the MIC against E. coli Neumann (20 h) came out at 0.25 µg/mL (≈ 0.639 µM); in [6] (setting [16]) it was 8 µg/mL (≈ 20.4 µM).
In the case of `CCN1CCN(c2cc3c(cc2F)c(=O)c(C(=O)O)cn3C2CC2)CC1` [ENRO, enrofloxacin, reference compound], the MIC turned out to be 32 µg/mL (≈ 89 µM) with E. coli G293 Lh; 8 µg/mL (≈ 22.3 µM) against Staph. Z 318 Lh; 32 µg/mL (≈ 89 µM) in the assay on E. coli 21 Bui; 0.12 µg/mL (≈ 0.334 µM) with Staph. Ky 469 We; 0.25 µg/mL (≈ 0.696 µM) in the assay with Staph. Z433-4 LH.
